Experimental data: ChEMBL document CHEMBL1158411, “Second generation of BACE-1 inhibitors part 3: Towards non hydroxyethylamine transition state mimetics” (Bioorg Med Chem Lett, 2009)

How the values were obtained:
Cathepsin D = Cathepsin D (Homo sapiens, UniProt P07339); assay: Inhibition of cathepsin-D
Beta-secretase 1 [1] = biological target: T1, Beta-secretase 1 (Homo sapiens, UniProt P56817); assay: Inhibition of BACE1
Beta-secretase 2 = biological target: T2, Beta-secretase 2 (Homo sapiens, UniProt Q9Y5Z0); assay: Inhibition of BACE2
T2 sequence (Q9Y5Z0 whole entry): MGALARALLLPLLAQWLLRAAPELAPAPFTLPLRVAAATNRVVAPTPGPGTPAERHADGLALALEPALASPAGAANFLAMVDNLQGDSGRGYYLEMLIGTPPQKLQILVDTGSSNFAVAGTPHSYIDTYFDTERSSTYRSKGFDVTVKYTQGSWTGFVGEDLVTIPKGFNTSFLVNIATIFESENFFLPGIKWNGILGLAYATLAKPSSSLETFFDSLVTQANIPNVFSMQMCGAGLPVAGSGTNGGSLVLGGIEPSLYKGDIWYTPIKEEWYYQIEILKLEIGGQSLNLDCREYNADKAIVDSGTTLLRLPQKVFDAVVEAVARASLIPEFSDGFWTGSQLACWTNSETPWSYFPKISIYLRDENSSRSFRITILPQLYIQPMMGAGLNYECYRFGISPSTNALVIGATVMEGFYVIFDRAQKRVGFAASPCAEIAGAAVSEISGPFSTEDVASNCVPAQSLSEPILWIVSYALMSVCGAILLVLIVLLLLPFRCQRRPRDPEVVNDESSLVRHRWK

Beta-secretase 1 [2] = biological target: T1, Beta-secretase 1; assay: Inhibition of BACE1 in human SHSY5Y cells expressing wild type APP assessed as inhibition of intracellular amyloid beta-40 secretion; type: cell-based, SH-SY5Y
[3] = Lipophilicity, log D at pH 7.4; conditions: buffer
[4] = Half life in rat at 1 mg/kg/hr, iv; type: ADME, organism-based; set-up: route intravenous; conditions: in vivo
[5] = Cmax in rat at 10 mg/kg; type: ADME, organism-based; set-up: dose 10 mg/kg; conditions: in vivo
[6] = Bioavailability in rat; type: ADME, organism-based; conditions: in vivo
[7] = Blood clearance in rat at 1 mg/kg/hr, iv; type: ADME, organism-based; set-up: route intravenous
[8] = Volume of distribution in rat at 1 mg/kg/hr, iv; type: ADME, organism-based; set-up: route intravenous; conditions: in vivo
[9] = Blood clearance in dog at 1 mg/kg/hr, iv; type: ADME, organism-based, Canis lupus familiaris; set-up: route intravenous
[10] = Volume of distribution in dog at 1 mg/kg/hr, iv; type: ADME, organism-based, Canis lupus familiaris; set-up: route intravenous; conditions: in vivo
[11] = Half life in dog at 1 mg/kg/hr, iv; type: ADME, organism-based, Canis lupus familiaris; set-up: route intravenous; conditions: in vivo
[12] = Cmax in dog at 10 mg/kg; type: ADME, organism-based, Canis lupus familiaris; set-up: dose 10 mg/kg; conditions: in vivo
[13] = Bioavailability in dog; type: ADME, organism-based, Canis lupus familiaris; conditions: in vivo
Blood [14] = assay: Steady sate drug level in blood of mdr1a/b knockout mouse by HPLC analysis; type: ADME, tissue-based; conditions: read-out: Css
Blood [15] = assay: Steady sate drug level in blood of wild type mouse expressing mdr1a/b by HPLC analysis; type: ADME, tissue-based
Brain [16] = assay: Steady sate drug level in brain of mdr1a/b knockout mouse by HPLC analysis; type: ADME, tissue-based; conditions: in vivo, read-out: Css
Brain [17] = assay: Steady sate drug level in brain of wild type mouse expressing mdr1a/b by HPLC analysis; type: ADME, tissue-based; conditions: in vivo
[18] = Blood clearance in mdr1a/b knockout mouse by HPLC analysis; type: ADME, organism-based
[19] = Blood clearance in wild type mouse expressing mdr1a/b by HPLC analysis; type: ADME, organism-based
[20] = Ratio of steady sate drug level in brain to blood of mdr1a/b knockout mouse; type: ADME, tissue-based
[21] = Ratio of steady sate drug level in brain to blood of wild type mouse expressing mdr1a/b; type: ADME, tissue-based

T1 sequence (P56817 whole entry): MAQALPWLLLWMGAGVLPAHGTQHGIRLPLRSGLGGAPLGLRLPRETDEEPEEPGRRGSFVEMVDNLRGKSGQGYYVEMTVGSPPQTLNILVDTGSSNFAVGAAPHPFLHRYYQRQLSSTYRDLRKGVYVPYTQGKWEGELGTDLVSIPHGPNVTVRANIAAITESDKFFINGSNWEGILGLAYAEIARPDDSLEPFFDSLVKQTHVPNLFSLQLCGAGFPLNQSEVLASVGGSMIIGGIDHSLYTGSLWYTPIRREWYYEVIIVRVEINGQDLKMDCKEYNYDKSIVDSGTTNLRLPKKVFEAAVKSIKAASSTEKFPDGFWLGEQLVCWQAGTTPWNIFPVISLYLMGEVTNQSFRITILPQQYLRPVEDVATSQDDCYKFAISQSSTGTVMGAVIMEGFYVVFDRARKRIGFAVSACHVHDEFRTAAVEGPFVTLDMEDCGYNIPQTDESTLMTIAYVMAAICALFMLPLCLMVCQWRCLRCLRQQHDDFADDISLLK
Chain of Cathepsin D (P07339 65-162 limits assumed): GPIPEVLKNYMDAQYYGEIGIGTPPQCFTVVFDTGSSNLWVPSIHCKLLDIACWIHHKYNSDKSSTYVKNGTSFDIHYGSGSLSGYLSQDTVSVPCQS
Chain of Cathepsin D (P07339 169-412 limits assumed): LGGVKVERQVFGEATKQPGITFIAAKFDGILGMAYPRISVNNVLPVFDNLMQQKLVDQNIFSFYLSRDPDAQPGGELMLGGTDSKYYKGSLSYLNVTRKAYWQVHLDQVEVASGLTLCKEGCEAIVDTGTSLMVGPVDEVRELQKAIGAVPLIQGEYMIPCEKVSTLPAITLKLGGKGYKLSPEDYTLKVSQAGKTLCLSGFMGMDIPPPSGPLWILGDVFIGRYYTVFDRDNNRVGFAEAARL

Row | IC50 (Cathepsin D) | IC50 (Beta-secretase 1 [1]) | IC50 (Beta-secretase 2) | IC50 (Beta-secretase 1 [2]) | logD [3] | Structure (SMILES) | other results
1 | 36300 nM | 48 nM | 1140 nM | 262 nM |  | CCNC[C@@H](O)[C@H](Cc1ccccc1)NC(=O)c1cc2c3c(c1)c(CC)cn3CCS(=O)(=O)N2C | 
2 | 890 nM | 7 nM | 28 nM | 8 nM | 2.8 | CCc1cn2c3c(cc(C(=O)N[C@@H](Cc4ccccc4)[C@H](O)CNCCC(F)(F)F)cc13)N(C)S(=O)(=O)CC2 | 
3 |  | 40 nM |  | 245 nM |  | CCn1cc2c3c(cc(C(=O)N[C@@H](Cc4ccccc4)[C@H](O)CNCCF)cc31)N(C)S(=O)(=O)CC2 | 
4 |  | 20 nM |  | 51 nM |  | CCn1cc2c3c(cc(C(=O)N[C@@H](Cc4ccccc4)[C@H](O)CNCC(F)F)cc31)N(C)S(=O)(=O)CC2 | 
5 | 2110 nM | 5 nM | 590 nM | 27 nM | 0.9 | CCn1cc2c3c(cc(C(=O)N[C@@H](Cc4ccccc4)[C@H](O)CNC4CCOCC4)cc31)N(C)S(=O)(=O)CC2 | 
6 | 6790 nM |  | 370 nM |  | 1.79 | CCn1cc2c3c(cc(C(=O)N[C@@H](Cc4ccccc4)[C@H](O)CNC4CC4)cc31)N(C)S(=O)(=O)CC2 | 
7 | 5430 nM | 22 nM | 430 nM | 144 nM | 1.52 | CCc1cn2c3c(cc(C(=O)N[C@@H](Cc4ccccc4)[C@H](O)CN[C@H](C)CC)cc13)N(C)S(=O)(=O)CC2 | 
8 | 60 nM | 9 nM | 210 nM | 90 nM | 1.31 | CCc1cn2c3c(cc(C(=O)N[C@@H](Cc4ccccc4)[C@H](O)CNC4CCOCC4)cc13)N(C)S(=O)(=O)CC2 | 
9 |  | 32 nM |  | 4430 nM |  | CCn1cc2c3c(cc(C(=O)N[C@@H](Cc4ccccc4)[C@H](O)CNCC(F)(F)C(F)(F)F)cc31)N(C)S(=O)(=O)CC2 | 
10 | 2160 nM | 8 nM | 260 nM |  |  | CCc1cn2c3c(cc(C(=O)N[C@@H](Cc4ccccc4)[C@H](O)CNCc4cccc(C(F)(F)F)c4)cc13)OS(=O)(=O)CC2 | 
11 | 34600 nM | 11 nM | 1490 nM | 26 nM |  | C#CCNC[C@@H](O)[C@H](Cc1ccccc1)NC(=O)c1cc2c3c(cn(CC)c3c1)CCS(=O)(=O)N2C | 

Continued, compound first:

Row | Structure (SMILES) | IC50 (Cathepsin D) | IC50 (Beta-secretase 1 [1]) | IC50 (Beta-secretase 2) | IC50 (Beta-secretase 1 [2]) | logD [3] | other results
12 | CCc1cn2c3c(cc(C(=O)N[C@@H](Cc4ccccc4)[C@H](O)CNC4CC4)cc13)OS(=O)(=O)CC2 | 2970 nM | 250 nM | 1150 nM |  |  | 
13 | C#CCNC[C@@H](O)[C@H](Cc1ccccc1)NC(=O)c1cc2c3c(c1)c(CC)cn3CCS(=O)(=O)N2C | 75500 nM | 73 nM | 3100 nM | 118 nM |  | 
14 | CCc1cn2c3c(cc(C(=O)N[C@@H](Cc4ccccc4)[C@H](O)CNCCF)cc13)N(C)S(=O)(=O)CC2 |  | 50 nM |  | 209 nM |  | 
15 | CCn1cc2c3c(cc(C(=O)N[C@@H](Cc4ccccc4)C(=O)CNC4CCOCC4)cc31)N(C)S(=O)(=O)CC2 |  |  |  | 48 nM |  | 
16 | CCn1cc2c3c(cc(C(=O)N[C@@H](Cc4ccccc4)[C@H](O)CNCCC(F)(F)F)cc31)N(C)S(=O)(=O)CC2 | 570 nM |  | 75 nM |  | 2.59 | half-life [4]: 3.3 h; Cmax [5]: 88 nM; bioavailability [6]: 13%; clearance [7]: 57 mL/min/kg; Vd [8]: 11 L/kg; clearance [9]: 14 mL/min/kg; Vd [10]: 4.8 L/kg; half-life [11]: 6.8 h; Cmax [12]: 3590 nM; bioavailability [13]: 52%; concentration (Blood [14]): 339 nM; Css (Blood [15]): 381 nM; concentration (Brain [16]): 335 nM; Css (Brain [17]): 40 nM; clearance [18]: 94 mL/min/kg; clearance [19]: 85 mL/min/kg; Kp [20]: 0.99; Kp [21]: 0.1
17 | CCn1cc2c3c(cc(C(=O)N[C@@H](Cc4ccccc4)[C@H](O)CNc4ccccc4)cc31)N(C)S(=O)(=O)CC2 |  | 5 nM |  | 739 nM |  | 
18 | CCNC[C@@H](O)[C@H](Cc1ccccc1)NC(=O)c1cc2c3c(cn(CC)c3c1)CCS(=O)(=O)N2C | 19500 nM | 23 nM | 2170 nM | 73 nM | 0.07 | 
19 | CCc1cn2c3c(cc(C(=O)N[C@@H](Cc4ccccc4)[C@H](O)CNC4CC4)cc13)N(C)S(=O)(=O)CC2 |  | 11 nM |  |  | 2.17 | bioavailability [6]: 17%; concentration (Blood [14]): 397 nM; Css (Blood [15]): 490 nM; concentration (Brain [16]): 989 nM; Css (Brain [17]): 61 nM; clearance [18]: 62 mL/min/kg; clearance [19]: 72 mL/min/kg; Kp [20]: 2.41; Kp [21]: 0.13
20 | C#CCNC[C@@H](O)[C@H](Cc1ccccc1)NC(=O)c1cc2c3c(c1)c(CC)cn3CCS(=O)(=O)O2 | 15100 nM | 360 nM | 3200 nM |  |  | 
21 | CCn1cc2c3c(cc(C(=O)N[C@@H](Cc4ccccc4)[C@H](O)CNCC(F)(F)F)cc31)N(C)S(=O)(=O)CC2 |  | 79 nM |  | 2110 nM |  | 
22 | CCCNC[C@@H](O)[C@H](Cc1ccccc1)NC(=O)c1cc2c3c(cn(CC)c3c1)CCS(=O)(=O)N2C |  | 8 nM |  | 29 nM |  | 
23 | CC[C@@H](C)NC[C@@H](O)[C@H](Cc1ccccc1)NC(=O)c1cc2c3c(cn(CC)c3c1)CCS(=O)(=O)N2C | 1190 nM | 10 nM | 420 nM | 64 nM |  | 
24 | CCc1cn2c3c(cc(C(=O)N[C@@H](Cc4ccccc4)[C@H](O)CNCC4CCOCC4)cc13)OS(=O)(=O)CC2 | 130 nM | 86 nM | 450 nM |  |  | 
